For test [1], the system named is hippocampal and cortical neurons. Description: Ca^2+ imaging (Fura-8 AM) in primary neuronal cultures. Type of test: cell-based, mice. The conditions noted are these: for elevation of [Ca^2+] / percentage of tested cells that responded to carbachol: 300 μM carbachol. As to the method: Primary neuronal cells were plated onto precoated cover slides at a density of 5 × 10^5 and maintained at 37 °C in a 5% CO2 humidified atmosphere. On DIV7, cells were loaded with the calcium-sensitive dye Fura-8 AM; 3 µM Fura-8 was added to normal growth medium and the cells incubated at 37 °C for 30 min. Cells were then washed and incubated with HBSS with or without 1 µM FR900359 for 30 min. Coverslips were then placed into a microscope chamber containing HBSS and assays were performed as described previously ([46]).

In the next test the test system is D3 dopamine receptor. More on the design: method as in PMID 28522847. The conditions noted are these: ref [40]; cited from earlier work.
In another test the test system is chemokine CXCR4. The conditions noted are these: ref [10], [41]; cited from earlier work.
For test [2], the target named is muscarinic receptor (total muscarinic-receptor subtypes). Description: [^3H]NMS saturation binding on membrane preparations of cortex and hippocampus. More on the design: species or system mice. As to conditions: mean ± SD, five animals. From the text: We performed [^3H]NMS-binding studies on membrane preparations as described previously ([20]).
A further test deals with muscarinic receptor. Briefly: [^3H]NMS binding on intact primary neuronal cells. More on the design: species or system mice. The conditions noted are these: read-out: dissociation constant (Kd) of the radioligand. As to the method: Primary neuronal cells were seeded at a density of 5 × 10^4 cells/well onto a 96-well plate and maintained at 37 °C in a 5% CO2 humidified atmosphere. On the sixth day in vitro, cells were washed twice with binding buffer (110 mM NaCl, 5.4 mM KCl, 1.8 mM CaCl2, 1 mM MgSO4, 25 mM glucose, 20 mM 4-(2-hydroxyethyl)-1-piperazineethanesulfonic acid [HEPES], 58 mM sucrose). A range of [^3H]NMS concentrations (between 0 and 10 nM) were added to appropriate wells containing buffer or 10-µM atropine to determine total and nonspecific binding in 100 µL of final-volume binding buffer. Plates were incubated for 2 h at 37 °C and the reactions were terminated by removal of the binding mixture followed by 3 × 200 µL/well ice-cold NaCl 0.9% washes. We added 100 µL/well of Microscint-20, and the plates were sealed before overnight incubation at room temperature on a rapidly shaking platform. Bound ligand was determined using a Packard Topcount NXT (Perkin-Elmer Life Sciences).

Each structure is given as a SMILES string. Where two headings read alike, the source gives them in different places. Numbered stars: 1 amine (or outer) side, 2 acyl side, 3 side chain; on linkers, the order of the positions; unused ones are H or OH. Bridge positions count the residues as written; N and C are the ends. Square brackets hold non-standard residues; d marks the D form. Peptide text beside a SMILES is read from it. * marks the point of attachment. Leu(3R-OH,Nα-propionyl) = CCC(=O)N[C@H](C(=O)*)[C@H](O)C(C)C; X1 = CC(C)[C@@H](O[*:3])[C@H](N[*:1])C(=O)[*:2]; NMeT = CN[C@H](C(=O)O)[C@@H](C)O; dPhLac = O=C(O)[C@H](O)Cc1ccccc1; NMeA = CN[C@@H](C)C(=O)O; NMeDha = C=C(NC)C(=O)O

For the molecule `C[N+](C)(C)CCOC(N)=O` [carbachol], the “elevation of [Ca^2+]” value in test [1] (cells from M1-KO mice) is “did not promote a large increase of [Ca^2+]”; in test [1] (neuronal cultures from WT and homozygous M1-mEGFP mice), “promoted elevation of [Ca^2+]”. Further, the “percentage of tested cells that responded to carbachol” value in test [1] (neurons from M1-mEGFP mice, mean ± SD) is reported as 36.7% ± 4.0%; in test [1] (neurons from WT mice) it was 26.8% ± 3.4%.

Turning to `C=C1C(=O)N[C@@H](C)C(=O)N(C)[C@@H](C)C(=O)N[C@@H]([C@H](OC(=O)[C@@H](NC(=O)CC)[C@H](O)C(C)C)C(C)C)C(=O)N(C)[C@@H]([C@@H](C)OC)C(=O)O[C@H](C(C)C)[C@H](NC(C)=O)C(=O)O[C@H](Cc2ccccc2)C(=O)N1C` [FR900359] (Ac-[X1][dPhLac][NMeDha]A[NMeA][X1](Leu(3R-OH,Nα-propionyl))[NMeT](Me); ester 1-C), the “effect on carbachol-induced elevation of [Ca^2+]” value in test [1] (pretreatment with 1 µM FR900359 for 30 min, P < 0.001) is listed as “prevented”.

As for `O=C(CCCN1CCC2(CC1)C(=O)NCN2c1ccccc1)c1ccc(F)cc1` [spiperone], the “effect on dimers of the D3 dopamine receptor” value in the test on D3 dopamine receptor is “destabilize dimers of the D3 dopamine receptor”.

For `CC1(C)CN2C(CSC(=NC3CCCCC3)NC3CCCCC3)=CSC2=N1` [IT1t], the “effect on dimers of CXCR4” value in the test with chemokine CXCR4 is “disrupt dimers of the chemokine CXCR4”.

What is called Kd is the concentration at which binding is half-saturated. Turning to `C[N+]1(C)[C@@H]2CC(OC(=O)[C@H](CO)c3ccccc3)C[C@H]1[C@@H]1O[C@@H]12` (some centres unmarked) [[^3H]NMS, [^3H]N-methylscopolamine], the Kd came to […] in test [2] (cortex, M1-KO mice); […] in test [2] (cortex, M1-WT mice); […] in test [2] (cortex, homozygous M1-mEGFP mice); […] in test [2] (hippocampus, M1-KO mice); […] in test [2] (hippocampus, M1-WT mice); […] in test [2] (hippocampus, homozygous M1-mEGFP mice). For the same molecule, the Kd in the test with muscarinic receptor (intact neuronal cultures from WT mice) turned out to be […]; with muscarinic receptor (intact neuronal cultures from homozygous M1-mEGFP mice), […].

Regarding `O=C(CCCN1CCC(O)(c2ccc(Cl)cc2)CC1)c1ccc(F)cc1` [haloperidol], the “effect on dimers of the D3 dopamine receptor” value with D3 dopamine receptor is reported as “destabilize dimers of the D3 dopamine receptor”.

On to `Nc1ncnc2c1ncn2[C@@H]1O[C@H](COP(=O)(O)OP(=O)(O)OP(=O)(O)O)[C@@H](O)[C@H]1O` [adenosine triphosphate], for which, in test [1] (10 μM ATP added after carbachol, cells from M1-KO mice), the “elevation of intracellular [Ca^2+]” value is “able to elicit rapid elevation of intracellular [Ca^2+]”.
